Article PMC12454871, “Embedding a feruloyl esterase active site into a thermophilic endoxylanase scaffold for the degradation of feruloylated xylans” (Computational and Structural Biotechnology Journal, 2025)

Experiments:
Xyn11 [1] = target: T1, Xyn11 (Pseudothermotoga thermarum, UniProt F7YXD6, L292S/K296H, form not given); test: X-ray crystallography, […] Å; assay type: binding; conditions: native xylanase active site (E144/E251); trapped expression inducer
T1 construct: gene Theth_1636; GH10 single-domain TIM barrel, 342 residues; all rows are the designed double mutant Xyn11m1
T1 sequence (F7YXD6 entry or part of it L292S/K296H, form open): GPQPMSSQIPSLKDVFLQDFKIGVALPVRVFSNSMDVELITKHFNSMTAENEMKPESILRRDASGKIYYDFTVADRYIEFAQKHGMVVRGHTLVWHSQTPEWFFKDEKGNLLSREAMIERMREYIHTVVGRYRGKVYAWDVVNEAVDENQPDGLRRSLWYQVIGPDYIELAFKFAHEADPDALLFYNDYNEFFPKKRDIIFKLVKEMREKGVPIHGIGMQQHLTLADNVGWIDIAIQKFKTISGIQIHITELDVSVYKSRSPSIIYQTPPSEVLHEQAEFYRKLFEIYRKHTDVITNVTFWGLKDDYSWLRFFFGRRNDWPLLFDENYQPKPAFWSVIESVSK

Xyn11 [2] = target: T1, Xyn11; test: phenol red pH-indicator esterase assay, absorbance […] nm; assay type: biochemical; conditions: pH 8.0, 90 °C, 5 mM EPPS, 50 mM NaCl; engineered Ser271-His275-Glu272 esterase site

| Km (Xyn11 [2]) [µM] | SMILES | X-ray crystallography, 2.1 Å (Xyn11 [1]) |
| --- | --- | --- |
|  | CC(C)S[C@@H]1O[C@H](CO)[C@H](O)[C@H](O)[C@H]1O [IPTG] | E144 and E251 and includes a trapped IPTG molecule |
| 2900 ± 200 | COC(=O)/C=C/c1ccc(O)c(OC)c1 [methyl ferulate] |  |
